Common to all, as to assay type: biochemical
One test addresses TYK2 (Homo sapiens (Human), UniProt P29597). The test is described as follows: JAK Caliper Enzyme Assay at 1 mM ATP, TYK2. The method in brief: (§1)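 Mobility-shift microfluidic read-out: substrate and phosphopeptide peaks separated, % conversion = product/(product+substrate). Reaction used recombinant human kinase domain, synthetic peptide, 1 mM ATP, RT incubation to 20–30% turnover, quenched with EDTA. Percent effect versus DMSO and positive controls, plotted against concentration.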

Another test addresses JAK1 (Homo sapiens (Human), UniProt P23458). The test is described as follows: JAK Caliper Enzyme Assay at 1 mM ATP, JAK1. The essentials:
(§2)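 IC50 (nM) derived from percent conversion of fluorescently labelled peptide, measured by Caliper LabChip mobility-shift separation after EDTA stop. Each JAK family kinase domain (human, recombinant) run at 1 mM ATP and room temperature, conditions set to 20-30% product; DMSO wells define uninhibited baseline.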

The target in the next test is JAK2 (Homo sapiens (Human), UniProt O60674). The test is described as follows: JAK Caliper Enzyme Assay at 1 mM ATP, JAK2. The essentials:
as §1

Another test addresses JAK3 (Homo sapiens (Human), UniProt P52333). As to the kind of experiment: JAK Caliper Enzyme Assay at 1 mM ATP, JAK3. The essentials: as §2

From US11254668B2, “Pyrazolo[1,5-A]pyrazin-4-yl and related derivatives” (Pfizer Inc., priority 2017, dated 2022) come the findings set out here.

Sequence of TYK2 (P29597 897-1176): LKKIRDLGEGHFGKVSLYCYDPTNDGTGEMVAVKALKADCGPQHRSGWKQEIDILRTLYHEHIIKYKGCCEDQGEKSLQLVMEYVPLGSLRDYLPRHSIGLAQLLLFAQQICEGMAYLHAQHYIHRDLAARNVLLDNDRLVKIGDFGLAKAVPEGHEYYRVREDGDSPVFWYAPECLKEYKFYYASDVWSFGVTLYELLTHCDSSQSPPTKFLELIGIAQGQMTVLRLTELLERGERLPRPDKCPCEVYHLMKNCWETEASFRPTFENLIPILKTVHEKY
Sequence of JAK1 (P23458 875-1153): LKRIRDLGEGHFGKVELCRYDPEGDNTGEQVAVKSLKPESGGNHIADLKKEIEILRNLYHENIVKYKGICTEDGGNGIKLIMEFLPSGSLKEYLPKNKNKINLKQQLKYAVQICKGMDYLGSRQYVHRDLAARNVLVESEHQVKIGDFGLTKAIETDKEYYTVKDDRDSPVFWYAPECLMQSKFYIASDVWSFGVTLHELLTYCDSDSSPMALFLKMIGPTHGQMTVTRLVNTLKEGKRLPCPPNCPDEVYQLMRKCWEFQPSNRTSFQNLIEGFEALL
Sequence of JAK3 (P52333 822-1111): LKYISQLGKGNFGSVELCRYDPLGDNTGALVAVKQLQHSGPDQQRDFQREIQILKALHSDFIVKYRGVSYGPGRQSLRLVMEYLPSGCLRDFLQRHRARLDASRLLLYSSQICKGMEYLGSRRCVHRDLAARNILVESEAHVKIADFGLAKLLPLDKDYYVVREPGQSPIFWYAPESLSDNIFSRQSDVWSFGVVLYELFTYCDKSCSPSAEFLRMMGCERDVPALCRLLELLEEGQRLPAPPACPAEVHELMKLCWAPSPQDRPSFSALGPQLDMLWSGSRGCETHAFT
Sequence of JAK2 (O60674 849-1124): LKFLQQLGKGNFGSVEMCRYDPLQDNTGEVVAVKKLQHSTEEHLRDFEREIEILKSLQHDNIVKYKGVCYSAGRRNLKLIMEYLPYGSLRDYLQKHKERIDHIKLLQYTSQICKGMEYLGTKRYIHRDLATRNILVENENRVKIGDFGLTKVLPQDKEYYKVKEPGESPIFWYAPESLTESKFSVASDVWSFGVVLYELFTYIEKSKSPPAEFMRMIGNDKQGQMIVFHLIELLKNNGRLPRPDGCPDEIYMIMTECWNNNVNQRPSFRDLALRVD

With `CO[C@H]1C[C@@](CC#N)(n2ccc(-c3nc(-c4ccc(=O)[nH]c4)cc4ncccc34)n2)C1` [Example 247, (cis-3-methoxy-1-{3-[7-(6-oxo-1,6-dihydropyridin-3-yl)-1,6-naphthyridin-5-yl]-1H-pyrazol-1-yl}cyclobutyl)acetonitrile], the 50% inhibitory concentration (IC50) was 49 nM on TYK2, 1340 nM at JAK1, 778 nM on JAK2 and above 10000 nM on JAK3.

Regarding `Cn1cc(-c2cc3ncccc3c(-c3ccn(C4(CC#N)CN(S(C)(=O)=O)C4)n3)n2)ccc1=O` [Example 248, [3-{3-[7-(1-methyl-6-oxo-1,6-dihydropyridin-3-yl)-1,6-naphthyridin-5-yl]-1H-pyrazol-1-yl}-1-(methylsulfonyl)azetidin-3-yl]acetonitrile], the IC50 is 96 nM at TYK2, 994 nM on JAK1, 532 nM on JAK2 and above 10000 nM on JAK3.

Regarding `Cn1cc(-c2cc3ncccc3c(-c3ccn(C4(CC#N)CN(CC(F)(F)F)C4)n3)n2)ccc1=O` [Example 249, [3-{3-[7-(1-methyl-6-oxo-1,6-dihydropyridin-3-yl)-1,6-naphthyridin-5-yl]-1H-pyrazol-1-yl}-1-(2,2,2-trifluoroethyl)azetidin-3-yl]acetonitrile], the half-inhibitory concentration (IC50) was 178 nM on TYK2, 1080 nM at JAK1, 1150 nM on JAK2 and above 10000 nM at JAK3.

As for `Cc1cc(-c2cc3ncccc3c(-c3ccn(C4(CC#N)CN(CC(F)(F)F)C4)n3)n2)c[nH]c1=O` [Example 250, [3-{3-[7-(5-methyl-6-oxo-1,6-dihydropyridin-3-yl)-1,6-naphthyridin-5-yl]-1H-pyrazol-1-yl}-1-(2,2,2-trifluoroethyl)azetidin-3-yl]acetonitrile], the 50% inhibitory concentration (IC50) was 55 nM on TYK2, 1260 nM at JAK1, 821 nM on JAK2 and above 10000 nM on JAK3.

With `CCn1cc(-c2cc3ncccc3c(-c3ccn(C4(CC#N)CN(S(C)(=O)=O)C4)n3)n2)ccc1=O` [Example 251, [3-{3-[7-(1-ethyl-6-oxo-1,6-dihydropyridin-3-yl)-1,6-naphthyridin-5-yl]-1H-pyrazol-1-yl}-1-(methylsulfonyl)azetidin-3-yl]acetonitrile], the IC50 at TYK2 was 48 nM; on JAK1, 541 nM; at JAK2, 229 nM; on JAK3 it was above 10000 nM.

As to `CS(=O)(=O)N1CC(CC#N)(n2ccc(-c3nc(-c4ccccc4O)cc4ncccc34)n2)C1` [Example 252, [3-{3-[7-(2-hydroxyphenyl)-1,6-naphthyridin-5-yl]-1H-pyrazol-1-yl}-1-(methylsulfonyl)azetidin-3-yl]acetonitrile], the IC50 on TYK2 was 15 nM; at JAK1, 663 nM; on JAK2, 118 nM; at JAK3, above 10000 nM.

Take `CS(=O)(=O)N1CC(CC#N)(n2ccc(-c3nc(-c4ccc(O)cc4)cc4ncccc34)n2)C1` [Example 254, [3-{3-[7-(4-hydroxyphenyl)-1,6-naphthyridin-5-yl]-1H-pyrazol-1-yl}-1-(methylsulfonyl)azetidin-3-yl]acetonitrile]: the IC50 is 11 nM at TYK2, 237 nM at JAK1, 205 nM at JAK2 and above 10000 nM on JAK3.

As to `CS(=O)(=O)N1CC(CC#N)(n2ccc(-c3nc(-c4ccccc4CO)cc4ncccc34)n2)C1` [Example 255, [3-(3-{7-[2-(hydroxymethyl)phenyl]-1,6-naphthyridin-5-yl}-1H-pyrazol-1-yl)-1-(methylsulfonyl)azetidin-3-yl]acetonitrile], the IC50 on TYK2 was 3170 nM; on JAK1, above 10000 nM; on JAK2, above 10000 nM; on JAK3, above 10000 nM.

With `CS(=O)(=O)N1CC(CC#N)(n2ccc(-c3nc(-c4ccccc4F)cc4ncccc34)n2)C1` [Example 258, [3-{3-[7-(2-fluorophenyl)-1,6-naphthyridin-5-yl]-1H-pyrazol-1-yl}-1-(methylsulfonyl)azetidin-3-yl]acetonitrile], the IC50 on TYK2 was 255 nM; at JAK1, above 10000 nM; at JAK2, above 10000 nM; at JAK3, above 10000 nM.
